In patent US11707440B2 (priority 2017, dated 2023):

Columns and labels:
[1] = tested on: patients with treatment-resistant depression (TRD); test: Adverse events, Example 7; assay type: in vivo, human; conditions: for Dissociation, number of participants / Dissociative disorder, % of participants / Dissociative disorder, number of participants / Dizziness, % of participants / Dizziness, number of participants / Dysgeusia, % of participants / Dysgeusia, number of participants / Feeling abnormal, % of participants / Feeling abnormal, number of participants / Headache, % of participants / Headache, number of participants / Hypersomnia, % of participants / Hypersomnia, number of participants / Hypertension, number of participants / Hypoesthesia oral, % of participants / Hypoesthesia oral, number of participants / Insomnia, number of participants / Nasal discomfort, number of participants / Nausea, % of participants / Nausea, number of participants / Oropharyngeal pain, number of participants / Polyuria, number of participants / Sedation, % of participants / Sedation, number of participants / Throat irritation, % of participants / Throat irritation, number of participants / Total with events, % of participants / Total with events, number of participants / Tunnel vision, number of participants / Vertigo, % of participants / Vertigo, number of participants / Vision blurred, number of participants / Dissociation, % of participants / Hypertension, % of participants / Insomnia, % of participants / Nasal discomfort, % of participants / Oropharyngeal pain, % of participants / Polyuria, % of participants / Tunnel vision, % of participants / Vision blurred, % of participants: double-blind
Protocol: (§1) Adverse events were monitored throughout the study. Other safety assessments (i.e., laboratory tests, vital signs, physical examination) were performed at pre-specified time points. Vital signs, the Clinician Administered Dissociative States Scale (CADSS; Bremner, “Measurement of dissociative states with the clinician-administered dissociative states scale (CADSS)”, J. Traumatic Stress, 1998, 11(1):125-136), and the 4-item positive symptom subscale from the Brief Psychiatric Rating Scale (BPRS; Overall, “The Brief Psychiatric Rating Scale. Psychological Reports”, 1962, 10:799-812) were assessed pre-dose, at 40 minutes, and 2 hours post-dose.
Safety data were analyzed in Period 1, Period 2, double-blind, and open-label data sets, for all subjects receiving at least 1 dose of study medication.

[2] = tested on: patients with treatment-resistant depression (TRD); test: Blood pressure and heart rate, Example 7; assay type: in vivo, human
Protocol: as §1

[3] = in most cases at 10 or 40 minutes post-dose

CN[C@]1(c2ccccc2Cl)CCCCC1=O [esketamine, (S)-2-(2-chlorophenyl)-2-(methylamino)cyclohexanone]
Dissociation, number of participants ([1]; 28 mg): 0
Dissociative disorder, % of participants ([1]; 28 mg): 11%
Dissociative disorder, number of participants ([1]; 28 mg): 2
Dizziness, % of participants ([1]; 28 mg): 21%
Dizziness, number of participants ([1]; 28 mg): 4
Dysgeusia, % of participants ([1]; 28 mg): 11%
Dysgeusia, number of participants ([1]; 28 mg): 2
Feeling abnormal, % of participants ([1]; 28 mg): 11%
Feeling abnormal, number of participants ([1]; 28 mg): 2
Headache, % of participants ([1]; 28 mg): 32%
Headache, number of participants ([1]; 28 mg): 6
Hypersomnia, % of participants ([1]; 28 mg): 11%
Hypersomnia, number of participants ([1]; 28 mg): 2
Hypertension, number of participants ([1]; 28 mg): 0
Hypoesthesia oral, % of participants ([1]; 28 mg): 5%
Hypoesthesia oral, number of participants ([1]; 28 mg): 1
Insomnia, number of participants ([1]; 28 mg): 0
Nasal discomfort, number of participants ([1]; 28 mg): 0
Nausea, % of participants ([1]; 28 mg): 11%
Nausea, number of participants ([1]; 28 mg): 2
Oropharyngeal pain, number of participants ([1]; 28 mg): 0
Polyuria, number of participants ([1]; 28 mg): 0
Sedation, % of participants ([1]; 28 mg): 5%
Sedation, number of participants ([1]; 28 mg): 1
Throat irritation, % of participants ([1]; 28 mg): 5%
Throat irritation, number of participants ([1]; 28 mg): 1
Total with events, % of participants ([1]; 28 mg): 58%
Total with events, number of participants ([1]; 28 mg): 11
Tunnel vision, number of participants ([1]; 28 mg): 0
Vertigo, % of participants ([1]; 28 mg): 11%
Vertigo, number of participants ([1]; 28 mg): 2
Vision blurred, number of participants ([1]; 28 mg): 0
Dissociation, % of participants ([1]; 56 mg): 35%
Dissociation, number of participants ([1]; 56 mg): 7
Dissociative disorder, % of participants ([1]; 56 mg): 5%
Dissociative disorder, number of participants ([1]; 56 mg): 1
Dizziness, % of participants ([1]; 56 mg): 40%
Dizziness, number of participants ([1]; 56 mg): 8
Dysgeusia, % of participants ([1]; 56 mg): 15%
Dysgeusia, number of participants ([1]; 56 mg): 3
Feeling abnormal, % of participants ([1]; 56 mg): 5%
Feeling abnormal, number of participants ([1]; 56 mg): 1
Headache, % of participants ([1]; 56 mg): 15%
Headache, number of participants ([1]; 56 mg): 3
Hypersomnia, number of participants ([1]; 56 mg): 0
Hypertension, % of participants ([1]; 56 mg): 10%
Hypertension, number of participants ([1]; 56 mg): 2
Hypoesthesia oral, % of participants ([1]; 56 mg): 20%
Hypoesthesia oral, number of participants ([1]; 56 mg): 4
Insomnia, % of participants ([1]; 56 mg): 10%
Insomnia, number of participants ([1]; 56 mg): 2
Nasal discomfort, % of participants ([1]; 56 mg): 10%
Nasal discomfort, number of participants ([1]; 56 mg): 2
Nausea, % of participants ([1]; 56 mg): 20%
Nausea, number of participants ([1]; 56 mg): 4
Oropharyngeal pain, % of participants ([1]; 56 mg): 5%
Oropharyngeal pain, number of participants ([1]; 56 mg): 1
Polyuria, % of participants ([1]; 56 mg): 10%
Polyuria, number of participants ([1]; 56 mg): 2
Sedation, % of participants ([1]; 56 mg): 10%
Sedation, number of participants ([1]; 56 mg): 2
Throat irritation, number of participants ([1]; 56 mg): 0
Total with events, % of participants ([1]; 56 mg): 80%
Total with events, number of participants ([1]; 56 mg): 16
Tunnel vision, number of participants ([1]; 56 mg): 0
Vertigo, % of participants ([1]; 56 mg): 5%
Vertigo, number of participants ([1]; 56 mg): 1
Vision blurred, number of participants ([1]; 56 mg): 0
Dissociation, % of participants ([1]; 84 mg): 24%
Dissociation, number of participants ([1]; 84 mg): 4
Dissociative disorder, % of participants ([1]; 84 mg): 24%
Dissociative disorder, number of participants ([1]; 84 mg): 4
Dizziness, % of participants ([1]; 84 mg): 47%
Dizziness, number of participants ([1]; 84 mg): 8
Dysgeusia, % of participants ([1]; 84 mg): 29%
Dysgeusia, number of participants ([1]; 84 mg): 5
Feeling abnormal, % of participants ([1]; 84 mg): 6%
Feeling abnormal, number of participants ([1]; 84 mg): 1
Headache, % of participants ([1]; 84 mg): 18%
Headache, number of participants ([1]; 84 mg): 3
Hypersomnia, number of participants ([1]; 84 mg): 0
Hypertension, % of participants ([1]; 84 mg): 6%
Hypertension, number of participants ([1]; 84 mg): 1
Hypoesthesia oral, % of participants ([1]; 84 mg): 12%
Hypoesthesia oral, number of participants ([1]; 84 mg): 2
Insomnia, number of participants ([1]; 84 mg): 0
Nasal discomfort, % of participants ([1]; 84 mg): 6%
Nasal discomfort, number of participants ([1]; 84 mg): 1
Nausea, % of participants ([1]; 84 mg): 24%
Nausea, number of participants ([1]; 84 mg): 4
Oropharyngeal pain, % of participants ([1]; 84 mg): 12%
Oropharyngeal pain, number of participants ([1]; 84 mg): 2
Polyuria, number of participants ([1]; 84 mg): 0
Sedation, % of participants ([1]; 84 mg): 6%
Sedation, number of participants ([1]; 84 mg): 1
Throat irritation, % of participants ([1]; 84 mg): 12%
Throat irritation, number of participants ([1]; 84 mg): 2
Total with events, % of participants ([1]; 84 mg): 88%
Total with events, number of participants ([1]; 84 mg): 15
Tunnel vision, % of participants ([1]; 84 mg): 12%
Tunnel vision, number of participants ([1]; 84 mg): 2
Vertigo, % of participants ([1]; 84 mg): 6%
Vertigo, number of participants ([1]; 84 mg): 1
Vision blurred, % of participants ([1]; 84 mg): 12%
Vision blurred, number of participants ([1]; 84 mg): 2
Dissociation, % of participants ([1]; Total esketamine): 20%
Dissociation, number of participants ([1]; Total esketamine): 11
Dissociative disorder, % of participants ([1]; Total esketamine): 13%
Dissociative disorder, number of participants ([1]; Total esketamine): 7
Dizziness, % of participants ([1]; Total esketamine): 36%
Dizziness, number of participants ([1]; Total esketamine): 20
Dysgeusia, % of participants ([1]; Total esketamine): 18%
Dysgeusia, number of participants ([1]; Total esketamine): 10
Feeling abnormal, % of participants ([1]; Total esketamine): 7%
Feeling abnormal, number of participants ([1]; Total esketamine): 4
Headache, % of participants ([1]; Total esketamine): 21%
Headache, number of participants ([1]; Total esketamine): 12
Hypersomnia, % of participants ([1]; Total esketamine): 4%
Hypersomnia, number of participants ([1]; Total esketamine): 2
Hypertension, % of participants ([1]; Total esketamine): 5%
Hypertension, number of participants ([1]; Total esketamine): 3
Hypoesthesia oral, % of participants ([1]; Total esketamine): 13%
Hypoesthesia oral, number of participants ([1]; Total esketamine): 7
Insomnia, % of participants ([1]; Total esketamine): 4%
Insomnia, number of participants ([1]; Total esketamine): 2
Nasal discomfort, % of participants ([1]; Total esketamine): 5%
Nasal discomfort, number of participants ([1]; Total esketamine): 3
Nausea, % of participants ([1]; Total esketamine): 18%
Nausea, number of participants ([1]; Total esketamine): 10
Oropharyngeal pain, % of participants ([1]; Total esketamine): 5%
Oropharyngeal pain, number of participants ([1]; Total esketamine): 3
Polyuria, % of participants ([1]; Total esketamine): 4%
Polyuria, number of participants ([1]; Total esketamine): 2
Sedation, % of participants ([1]; Total esketamine): 7%
Sedation, number of participants ([1]; Total esketamine): 4
Throat irritation, % of participants ([1]; Total esketamine): 5%
Throat irritation, number of participants ([1]; Total esketamine): 3
Total with events, % of participants ([1]; Total esketamine): 75%
Total with events, number of participants ([1]; Total esketamine): 42
Tunnel vision, % of participants ([1]; Total esketamine): 4%
Tunnel vision, number of participants ([1]; Total esketamine): 2
Vertigo, % of participants ([1]; Total esketamine): 7%
Vertigo, number of participants ([1]; Total esketamine): 4
Vision blurred, % of participants ([1]; Total esketamine): 4%
Vision blurred, number of participants ([1]; Total esketamine): 2
Participants with adverse events leading to discontinuation of study drug ([1]; double-blind phase): 5%
Adverse event dizziness ([1]; open-label phase): 38.6%
Adverse event dysgeusia ([1]; open-label phase): 22.8%
Adverse event headache ([1]; open-label phase): 14.0%
Adverse event nausea ([1]; open-label phase): 15.8%
Adverse event sedation ([1]; open-label phase): 10.5%
Participants reporting transient dissociative symptoms ([1]; open-label phase): 24.6%
Participants with adverse events leading to discontinuation of study drug ([1]; open-label phase): 2%
Diastolic blood pressure, maximum mean change ([2]; dosing days): 10.3 mmHg
Heart rate, maximum mean change ([2]; dosing days): 9.4 bpm
Systolic blood pressure, maximum mean change ([2]; dosing days): 19.0 mmHg
Time of return of elevated blood pressure to the normal range ([2]; human, in vivo, other: intranasal): ≤ 2 hours post-dose
Maximum diastolic blood pressure value [2, 3]: 115 mmHg
Maximum systolic blood pressure value [2, 3]: 199 mmHg
